Assay results: patent US9155729B2, “Thiazolidinedione analogues” (Metabolic Solutions Development Company, LLC, priority 2006, dated 2015)
Marks after values point to notes of the source that are not given here.

What was measured:
[1] = biological target: T1, PPARγ (Homo sapiens, UniProt P37231); assay: Commercial PPARγ binding assay (Invitrogen, PPAR-LBD/Fluormone PPAR Green complex); details: for PPARγ binding signal (fluorescence polarization, Fluormone PPAR Green displacement): mean of three experiments; for Binding to PPARγ (in words): referring to FIG. 1 and Table B
T1 construct: purchased Invitrogen Corporation, Carlsbad, Calif
T1 sequence (P37231 238-503 limits assumed): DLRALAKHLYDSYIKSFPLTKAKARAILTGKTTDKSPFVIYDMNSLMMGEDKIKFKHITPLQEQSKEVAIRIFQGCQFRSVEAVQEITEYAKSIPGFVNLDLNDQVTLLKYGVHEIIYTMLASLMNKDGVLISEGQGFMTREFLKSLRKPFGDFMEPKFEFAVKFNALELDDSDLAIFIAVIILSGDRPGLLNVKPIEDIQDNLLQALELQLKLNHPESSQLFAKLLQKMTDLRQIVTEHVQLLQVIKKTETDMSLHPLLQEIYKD
Method: The ability of several exemplary compounds of the present invention, shown in Table A, to bind to PPARγ was measured using a commercial binding assay (Invitrogen Corporation, Carlsbad, Calif.) that measures the test compounds ability to bind with PPAR-LBD/Fluormone PPAR Green complex. These assays were performed on three occasions with each assay using four separate wells (quadruplicate) at each concentration of tested compound. The data are mean and SEM of the values obtained from the three experiments. […] Compounds were added at the concentrations shown, which range from 0.1-100 micromolar.

[2] = system: Diabetic KKAy mice; assay: Glucose, insulin and triglyceride in diabetic KKAy mice, 4 days oral dosing; assay type: in vivo; details: for Glucose / Insulin / Triglycerides: 93 mg/kg orally for 4 days, fasted, blood approx. 18 hours after last dose, mean and SEM; for Effectiveness at lowering glucose, insulin and triglyceride levels / antidiabetic activity (in words): Table C
Method: The insulin sensitizing and antidiabetic pharmacology are measured in the KKA^Y mice as previously reported [Hofmann, C., Lomez, K., and Colca, J. R. (1991). Glucose transport deficiency corrected by treatment with the oral anti-hyperglycemic agent Pioglitazone. Endocrinology, 129:1915-1925.]. Compounds are formulated in 1% sodium carboxy methylcellulose, and 0.01% tween 20 and dosed daily by oral gavage.
Compounds were formulated by suspension and orally dosed to KKAy mice at 93 mg/kg for 4 days. The compounds were first dissolved in DMSO and then placed into aqueous suspension containing 7-10% DMSO, 1% sodium methylcarboxycellulose, and 0.01% Tween 20. On the fifth day, the mice were fasted and blood samples were obtained approximately 18 hours after the last dose. The parameters were measured by standard assay methods. Data are mean and SEM N=6-12 mice.

[3] = system: Diabetic KKAy mice; assay: Glucose and insulin in diabetic KKAy mice dosed 7 days with compound 1 or rosiglitazone; assay type: in vivo; details: 20 mg rosiglitazone or 100 mg/kg compound 1, fasting, 8th day, mean, 8 mice/group
Method: (§1) KKAy mice were dosed for 7 days with 20 mg rosigltiazone (positive control) and 100 mg/kg of compound 1 in suspension (1% sodium methyl carboxymethyl cellulose/0.01% Tween 80). On the 8th day, fasting, glucose, and insulin were measured, see Table D. The liver was isolated was used to measure hepatic mRNA for aP2, a biomarker for PPARγ activation in vivo. […] Data are mean and (SEM) for 8 mice/group.

[4] = system: aP2; assay: Hepatic mRNA for aP2, biomarker for PPARγ activation in vivo, KKAy mice
Method: as §1

Row | SMILES | PPARγ binding signal (fluorescence polarization, Fluormone PPAR Green displacement) ([1]; 1 μM compound) | PPARγ binding signal (fluorescence polarization, Fluormone PPAR Green displacement) ([1]; 3 μM compound) | PPARγ binding signal (fluorescence polarization, Fluormone PPAR Green displacement) ([1]; 10 μM compound) | PPARγ binding signal (fluorescence polarization, Fluormone PPAR Green displacement) ([1]; 50 μM compound) | PPARγ binding signal (fluorescence polarization, Fluormone PPAR Green displacement) ([1]; 100 μM compound) | PPARγ binding signal (fluorescence polarization, Fluormone PPAR Green displacement) ([1]; .1 μM compound) | PPARγ binding signal (fluorescence polarization, Fluormone PPAR Green displacement) ([1]; .3 μM compound) | Binding to PPARγ (in words) [1] | Glucose ([2]; N=6-12, 93 mg/kg) [mg/dL] | Insulin ([2]; N=6-12, 93 mg/kg) [ng/mL] | Triglycerides ([2]; N=6-12, 93 mg/kg) [mg/dL] | Effectiveness at lowering glucose, insulin and triglyceride levels / antidiabetic activity (in words) [2] | Glucose ([2]; N=6-12) | Insulin ([2]; N=6-12) | Triglycerides ([2]; N=6-12) | Glucose [3] [mg/dL] | Insulin [3] [ng/mL] | aP2 (relative expression in liver) ([4]; KKAy mice dosed 7 days, 20 mg rosiglitazone or 100 mg/kg compound 1, hepatic mRNA, mean, 8 mice/group) | Activation of PPARγ in vivo as compared to the positive control (in words) ([4]; KKAy mice, hepatic aP2 mRNA, 100 mg/kg for 7 days)
1 | CCc1ccc([C@@H](O)COc2ccc(CC3SC(=O)NC3=O)cc2)nc1 (stereo partly shown) [Compound 2] | 238 | 236 | 223 | 162 | 136 | 231 | 233 | particularly poor binders |  |  |  | equivalent antidiabetic activity | 428 +/− 17* mg/dl | 5.7 +/− 1.6* ng/ml | 187 +/− 29* mg/dl |  |  |  | 
2 | CCc1ccc([C@H](O)COc2ccc(CC3SC(=O)NC3=O)cc2)nc1 (stereo partly shown) [Compound 3] | 203 | 185 | 134 | 88 | 77 | 226 | 221 |  |  |  |  | equivalent antidiabetic activity | 388 +/− 38* mg/dl | 7.2 +/− 1.9* ng/ml | 148 +/− 23* mg/dl |  |  |  | 
3 | CCc1ccc([C@H](O)COc2ccc(CC3(C)SC(=O)NC3=O)cc2)nc1 (stereo partly shown) [Compound 9] | 239 | 233 | 234 | 189 | 164 | 237 | 237 |  |  |  |  |  | 740 ± 37 mg/dL | 14.8 ± 2.5 ng/mL | 354 ± 43 mg/dL |  |  |  | 
4 | CN(CCOc1ccc(CC2SC(=O)NC2=O)cc1)c1ccccn1 (stereo not shown) [Rosiglitazone, reference compound] |  |  |  |  |  |  |  |  |  |  |  |  |  |  |  | 320 | 3.4 |  | 

Second part, led by results:

Row | PPARγ binding signal (fluorescence polarization, Fluormone PPAR Green displacement) ([1]; 1 μM compound) | PPARγ binding signal (fluorescence polarization, Fluormone PPAR Green displacement) ([1]; 3 μM compound) | PPARγ binding signal (fluorescence polarization, Fluormone PPAR Green displacement) ([1]; 10 μM compound) | PPARγ binding signal (fluorescence polarization, Fluormone PPAR Green displacement) ([1]; 50 μM compound) | PPARγ binding signal (fluorescence polarization, Fluormone PPAR Green displacement) ([1]; 100 μM compound) | PPARγ binding signal (fluorescence polarization, Fluormone PPAR Green displacement) ([1]; .1 μM compound) | PPARγ binding signal (fluorescence polarization, Fluormone PPAR Green displacement) ([1]; .3 μM compound) | Binding to PPARγ (in words) [1] | SMILES | Glucose ([2]; N=6-12, 93 mg/kg) [mg/dL] | Insulin ([2]; N=6-12, 93 mg/kg) [ng/mL] | Triglycerides ([2]; N=6-12, 93 mg/kg) [mg/dL] | Effectiveness at lowering glucose, insulin and triglyceride levels / antidiabetic activity (in words) [2] | Glucose ([2]; N=6-12) | Insulin ([2]; N=6-12) | Triglycerides ([2]; N=6-12) | Glucose [3] [mg/dL] | Insulin [3] [ng/mL] | aP2 (relative expression in liver) ([4]; KKAy mice dosed 7 days, 20 mg rosiglitazone or 100 mg/kg compound 1, hepatic mRNA, mean, 8 mice/group) | Activation of PPARγ in vivo as compared to the positive control (in words) ([4]; KKAy mice, hepatic aP2 mRNA, 100 mg/kg for 7 days)
5 | 248 | 237 | 210 | 144 | 105 | 249 | 246 | better PPARγ binding compounds | CCc1ccc(CCOc2ccc(CC3(C)SC(=O)NC3=O)cc2)nc1 (single isomer, unassigned) [Compound 7] | 631 ± 7 | 16.3 ± 1.2 | 374 ± 15 | not as effective as compounds 1 and 2 |  |  |  |  |  |  | 
6 | 223 | 228 | 207 | 174 | 170 | 227 | 232 | particularly poor binders | CCc1ccc(C(=O)COc2ccc(CC3SC(=O)NC3=O)cc2)nc1 (stereo not shown) [Compound 1] |  |  |  |  | 402 +/− 25* mg/dl | 7.6 +/− 1.9* ng/ml | 115 +/− 18* mg/dl | 291 | 1.9 | 5.7 | little activation of PPARγ
7 | 239 | 241 | 233 | 199 | 186 | 237 | 243 |  | CCc1ccc([C@@H](O)COc2ccc(CC3(C)SC(=O)NC3=O)cc2)nc1 (stereo partly shown) [Compound 8] |  |  |  |  | 756 ± 31 mg/dL | 12.8 ± 2.6 ng/mL | 465 ± 64 mg/dL |  |  |  | 
8 | 232 | 229 | 165 | 128 | 78 | 230 | 227 |  | CCc1ccc(C(=CC(=O)OC)COc2ccc(CC3SC(=O)NC3=O)cc2)nc1 (stereo not shown) [Compound 11] |  |  |  |  | 662 ± 40 mg/dL | 18.9 ± 1.6 ng/mL | 476 ± 106 mg/dL |  |  |  | 
